Results published in PubChem BioAssay AID2060618 (Molecular Pharmacology Branch, DTP, NCI, 2025).

Test system: 454973-116-R2-J3-PDC spheroids, percent test/control viability
Assay: Anticancer human tumor 454973-116-R2-J3-PDC patient-derived pancreatic carcinoma cell line growth inhibition [CLK]
Settings: spheroids with HUVEC and MSC; for IC50: curve of first compound; for viability, T/C: stronger effect = lower value
Summary of the method: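 Multi-cell-type spheroids combined patient-derived tumor cells with HUVEC endothelial cells and human mesenchymal stem cells. Paired agents were dosed in half-log steps down from about clinical Cmax, or from 10 microM where Cmax was unknown.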

[1] = second compound 0.0316 µM, first compound 0.00316 µM
[2] = second compound 0.0316 µM, first compound 0.01 µM
[3] = second compound 0.0316 µM, first compound 0.0316 µM
[4] = second compound 0.0316 µM, first compound 0.1 µM
[5] = second compound 0.0316 µM, first compound 0.316 µM
[6] = second compound 0.0316 µM, first compound 1 µM
[7] = second compound 0.1 µM, first compound 0.00316 µM
[8] = second compound 0.1 µM, first compound 0.01 µM
[9] = second compound 0.1 µM, first compound 0.0316 µM
[10] = second compound 0.1 µM, first compound 0.1 µM
[11] = second compound 0.1 µM, first compound 0.316 µM
[12] = second compound 0.1 µM, first compound 1 µM
[13] = second compound 0.316 µM, first compound 0.00316 µM
[14] = second compound 0.316 µM, first compound 0.01 µM
[15] = second compound 0.316 µM, first compound 0.0316 µM
[16] = second compound 0.316 µM, first compound 0.1 µM
[17] = second compound 0.316 µM, first compound 0.316 µM
[18] = second compound 0.316 µM, first compound 1 µM
[19] = second compound 1 µM, first compound 0.00316 µM
[20] = second compound 1 µM, first compound 0.01 µM
[21] = second compound 1 µM, first compound 0.0316 µM
[22] = second compound 1 µM, first compound 0.1 µM
[23] = second compound 1 µM, first compound 0.316 µM
[24] = second compound 1 µM, first compound 1 µM
[25] = second compound 3.16 µM, first compound 0.00316 µM
[26] = second compound 3.16 µM, first compound 0.01 µM
[27] = second compound 3.16 µM, first compound 0.0316 µM
[28] = second compound 3.16 µM, first compound 0.1 µM
[29] = second compound 3.16 µM, first compound 0.316 µM
[30] = second compound 3.16 µM, first compound 1 µM
[31] = second compound 10 µM, first compound 0.00316 µM
[32] = second compound 10 µM, first compound 0.01 µM
[33] = second compound 10 µM, first compound 0.0316 µM
[34] = second compound 10 µM, first compound 0.1 µM
[35] = second compound 10 µM, first compound 0.316 µM
[36] = second compound 10 µM, first compound 1 µM
[37] = second compound 0.0316 µM, first compound 3.16 µM
[38] = second compound 0.0316 µM, first compound 10 µM
[39] = second compound 0.1 µM, first compound 3.16 µM
[40] = second compound 0.1 µM, first compound 10 µM
[41] = second compound 0.316 µM, first compound 3.16 µM
[42] = second compound 0.316 µM, first compound 10 µM
[43] = second compound 1 µM, first compound 3.16 µM
[44] = second compound 1 µM, first compound 10 µM
[45] = second compound 3.16 µM, first compound 3.16 µM
[46] = second compound 3.16 µM, first compound 10 µM
[47] = second compound 10 µM, first compound 3.16 µM
[48] = second compound 10 µM, first compound 10 µM
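Note: spheroids exposed to compounds for 7 days before readout.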

## CCc1c2c(nc3ccc(O)cc13)-c1cc3c(c(=O)n1C2)COC(=O)[C@]3(O)CC + CN1CCN(c2cc(C(=O)Nc3cc4cc(-c5cnn(C)c5)ccc4cn3)ccn2)CC1
Second compound 0.0316 µM
  IC50: < 3.16 nM
Second compound 0.1 µM
  IC50: < 3.16 nM
Second compound 0.316 µM
  IC50: < 3.16 nM
Second compound 1 µM
  IC50: < 3.16 nM
Second compound 3.16 µM
  IC50: < 3.16 nM
Second compound 10 µM
  IC50: < 3.16 nM
[1]
  viability, T/C: 26.9%
[2]
  viability, T/C: 17.1%
[3]
  viability, T/C: 12.6%
[4]
  viability, T/C: 6.38%
[5]
  viability, T/C: 3.17%
[6]
  viability, T/C: 0.71%
[7]
  viability, T/C: 21.8%
[8]
  viability, T/C: 21.1%
[9]
  viability, T/C: 9.73%
[10]
  viability, T/C: 3.23%
[11]
  viability, T/C: 1.75%
[12]
  viability, T/C: 0.31%
[13]
  viability, T/C: 2.15%
[14]
  viability, T/C: 3.91%
[15]
  viability, T/C: 2.2%
[16]
  viability, T/C: 0.98%
[17]
  viability, T/C: 0.1%
[18]
  viability, T/C: 0.1%
[19]
  viability, T/C: 0.08%
[20]
  viability, T/C: 0.1%
[21]
  viability, T/C: 0.1%
[22]
  viability, T/C: 0.05%
[23]
  viability, T/C: 0.07%
[24]
  viability, T/C: 0.09%
[25]
  viability, T/C: 0.1%
[26]
  viability, T/C: 0.13%
[27]
  viability, T/C: 0.14%
[28]
  viability, T/C: 0.11%
[29]
  viability, T/C: 0.16%
[30]
  viability, T/C: 0.15%
[31]
  viability, T/C: 0.07%
[32]
  viability, T/C: 0.12%
[33]
  viability, T/C: 0.17%
[34]
  viability, T/C: 0.18%
[35]
  viability, T/C: 0.21%
[36]
  viability, T/C: 0.18%

## Cn1ncnc1[C@H]1c2n[nH]c(=O)c3cc(F)cc(c23)N[C@@H]1c1ccc(F)cc1 + CN1CCN(c2cc(C(=O)Nc3cc4cc(-c5cnn(C)c5)ccc4cn3)ccn2)CC1
Second compound 0.0316 µM
  IC50: > 100 nM
Second compound 0.1 µM
  IC50: > 100 nM
Second compound 0.316 µM
  IC50: < 0.316 nM
Second compound 1 µM
  IC50: < 0.316 nM
Second compound 3.16 µM
  IC50: < 0.316 nM
Second compound 10 µM
  IC50: < 0.316 nM
Second compound 0.0316 µM, first compound 0.000316 µM
  viability, T/C: 93.9%
Second compound 0.0316 µM, first compound 0.001 µM
  viability, T/C: 99%
[1]
  viability, T/C: 90.5%
[2]
  viability, T/C: 92.9%
[3]
  viability, T/C: 91.2%
[4]
  viability, T/C: 85%
Second compound 0.1 µM, first compound 0.000316 µM
  viability, T/C: 75.4%
Second compound 0.1 µM, first compound 0.001 µM
  viability, T/C: 75%
[7]
  viability, T/C: 83.2%
[8]
  viability, T/C: 71.3%
[9]
  viability, T/C: 59.1%
[10]
  viability, T/C: 50.1%
Second compound 0.316 µM, first compound 0.000316 µM
  viability, T/C: 1.91%
Second compound 0.316 µM, first compound 0.001 µM
  viability, T/C: 2.28%
[13]
  viability, T/C: 3.23%
[14]
  viability, T/C: 4.91%
[15]
  viability, T/C: 2.64%
[16]
  viability, T/C: 2.84%
Second compound 1 µM, first compound 0.000316 µM
  viability, T/C: 0.1%
Second compound 1 µM, first compound 0.001 µM
  viability, T/C: 1.11%
[19]
  viability, T/C: 0.09%
[20]
  viability, T/C: 0.08%
[21]
  viability, T/C: 0.09%
[22]
  viability, T/C: 0.1%
Second compound 3.16 µM, first compound 0.000316 µM
  viability, T/C: 0.09%
Second compound 3.16 µM, first compound 0.001 µM
  viability, T/C: 0.12%
[25]
  viability, T/C: 0.1%
[26]
  viability, T/C: 1.05%
[27]
  viability, T/C: 1.67%
[28]
  viability, T/C: 0.12%
Second compound 10 µM, first compound 0.000316 µM
  viability, T/C: 0.11%
Second compound 10 µM, first compound 0.001 µM
  viability, T/C: 0.16%
[31]
  viability, T/C: 0.17%
[32]
  viability, T/C: 0.29%
[33]
  viability, T/C: 0.12%
[34]
  viability, T/C: 0.14%

## Nc1ccn(C2OC(CO)C(O)C2(F)F)c(=O)n1 (stereo not drawn) + CN1CCN(c2cc(C(=O)Nc3cc4cc(-c5cnn(C)c5)ccc4cn3)ccn2)CC1
Second compound 0.0316 µM
  IC50: < 31.6 nM
Second compound 0.1 µM
  IC50: < 31.6 nM
Second compound 0.316 µM
  IC50: < 31.6 nM
Second compound 1 µM
  IC50: < 31.6 nM
Second compound 3.16 µM
  IC50: < 31.6 nM
Second compound 10 µM
  IC50: < 31.6 nM
[3]
  viability, T/C: 10.3%
[4]
  viability, T/C: 9.2%
[5]
  viability, T/C: 11.2%
[6]
  viability, T/C: 10.4%
[37]
  viability, T/C: 11%
[38]
  viability, T/C: 12.3%
[9]
  viability, T/C: 10.3%
[10]
  viability, T/C: 10.5%
[11]
  viability, T/C: 8.35%
[12]
  viability, T/C: 11.8%
[39]
  viability, T/C: 12.8%
[40]
  viability, T/C: 10.7%
[15]
  viability, T/C: 1.34%
[16]
  viability, T/C: 3.55%
[17]
  viability, T/C: 1.4%
[18]
  viability, T/C: 1.47%
[41]
  viability, T/C: 1.66%
[42]
  viability, T/C: 1.1%
[21]
  viability, T/C: 1.36%
[22]
  viability, T/C: 0.1%
[23]
  viability, T/C: 0.67%
[24]
  viability, T/C: 0.06%
[43]
  viability, T/C: 0.07%
[44]
  viability, T/C: 1.87%
[27]
  viability, T/C: 0.13%
[28]
  viability, T/C: 0.16%
[29]
  viability, T/C: 0.18%
[30]
  viability, T/C: 0.15%
[45]
  viability, T/C: 0.15%
[46]
  viability, T/C: 0.15%
[33]
  viability, T/C: 0.16%
[34]
  viability, T/C: 0.66%
[35]
  viability, T/C: 0.22%
[36]
  viability, T/C: 1.09%
[47]
  viability, T/C: 0.2%
[48]
  viability, T/C: 1.04%

## O=c1[nH]cc(F)c(=O)[nH]1 + CN1CCN(c2cc(C(=O)Nc3cc4cc(-c5cnn(C)c5)ccc4cn3)ccn2)CC1
Second compound 0.0316 µM
  IC50: 1940 nM
Second compound 0.1 µM
  IC50: 1330 nM
Second compound 0.316 µM
  IC50: < 31.6 nM
Second compound 1 µM
  IC50: < 31.6 nM
Second compound 3.16 µM
  IC50: < 31.6 nM
Second compound 10 µM
  IC50: < 31.6 nM
[3]
  viability, T/C: 93%
[4]
  viability, T/C: 102%
[5]
  viability, T/C: 95.2%
[6]
  viability, T/C: 71.3%
[37]
  viability, T/C: 30.6%
[38]
  viability, T/C: 37.9%
[9]
  viability, T/C: 73%
[10]
  viability, T/C: 86.7%
[11]
  viability, T/C: 73.5%
[12]
  viability, T/C: 57.1%
[39]
  viability, T/C: 27.7%
[40]
  viability, T/C: 30.2%
[15]
  viability, T/C: 2.26%
[16]
  viability, T/C: 2.2%
[17]
  viability, T/C: 3.74%
[18]
  viability, T/C: 2.11%
[41]
  viability, T/C: 3.66%
[42]
  viability, T/C: 2.07%
[21]
  viability, T/C: 0.1%
[22]
  viability, T/C: 0.11%
[23]
  viability, T/C: 0.74%
[24]
  viability, T/C: 0.06%
[43]
  viability, T/C: 0.05%
[44]
  viability, T/C: 0.08%
[27]
  viability, T/C: 0.14%
[28]
  viability, T/C: 0.39%
[29]
  viability, T/C: 0.44%
[30]
  viability, T/C: 0.1%
[45]
  viability, T/C: 0.14%
[46]
  viability, T/C: 0.59%
[33]
  viability, T/C: 0.05%
[34]
  viability, T/C: 0.14%
[35]
  viability, T/C: 0.14%
[36]
  viability, T/C: 0.17%
[47]
  viability, T/C: 0.16%
[48]
  viability, T/C: 0.17%
